The values that follow are results of earlier work, collected in US20090018125A1, “Pharmaceutical Composition and Its Use” (Tillotts Pharma AG, priority 2004, published 2009).

In the data set the test system is human squamous carcinoma line and multidrug-resistant and carboplatin-resistant variants. As to conditions: cells pre-treated with GLA.

A value given as a limit tells only on which side of the number the result lay.

Turning to `CCCCC/C=C\C/C=C\C/C=C\CCCCC(=O)O` [GLA, gamma-linoleic acid], the “enhancement of vincristine toxicity” value is “up to 40%”. Under “depending on GLA concentration, human squamous carcinoma and carboplatin-resistant variant cell lines”, the “enhancement of toxicity of carboplatin” value was no less than 50%.
